Here are results for 3 molecules from publication PMC6923765, “Structural Design, Synthesis, and Preliminary Biological Evaluation of Novel Dihomooxacalix[4]arene-Based Anti-tumor Agents” (Frontiers in Chemistry, 2019).

Usually melting point stands for the temperature, or range, at which the solid turns liquid. As for `CC(C)(C)c1cc2c(O)c(c1)Cc1cc(C(C)(C)C)cc(c1OCC(=O)NCCO)Cc1cc(C(C)(C)C)cc(c1O)Cc1cc(C(C)(C)C)cc(c1OCC(=O)NC1CCCC1)COC2` [Compound 4Q, 7,13,19,25-tetra-tert-butyl-28,30-di-hydroxy-27-(N-clopentyl-aminocarbonylmethoxyl)-29-(N-(2-hydroxyethyl)-aminocarbonylmethoxyl)-2,3-dihomo-3-oxacalix[4]arene], the melting point is 138.3 to 140.5 °C.

As to `CC(C)(C)c1cc2c(O)c(c1)Cc1cc(C(C)(C)C)cc(c1OCC(=O)NCCO)Cc1cc(C(C)(C)C)cc(c1O)Cc1cc(C(C)(C)C)cc(c1OCC(=O)NCCc1ccccc1)COC2` [Compound 4R, 7,13,19,25-tetra-tert-butyl-28,30-di-hydroxy-27-(N-phenethyl-aminocarbonylmethoxyl)-29-(N-(2-hydroxyethyl)-aminocarbonylmethoxyl)-2,3-dihomo-3-oxacalix[4]arene], the melting point is 120.7 to 123.3 °C.

Turning to `CC(C)(C)c1cc2c(O)c(c1)Cc1cc(C(C)(C)C)cc(c1OCC(=O)NCCO)Cc1cc(C(C)(C)C)cc(c1O)Cc1cc(C(C)(C)C)cc(c1OCC(=O)N(CCO)CCO)COC2` [Compound 4S, 7,13,19,25-tetra-tert-butyl-28,30-di-hydroxy-27-(N,N-bis(2-hydroxyethyl)-aminocarbonylmethoxyl)-29-(N-(2-hydroxyethyl)-aminocarbonylmethoxyl)-2,3-dihomo-3-oxacalix[4]arene], the melting point was in the range of 144.4 to 146.2 °C.
